Experimental data as given in patent EP4342890A1, “PLATFORM AND SCAFFOLD FOR FAP TARGETING AGENTS” (Erasmus University Rotterdam Medical Center, priority 2022, dated 2024).

Columns and labels:
[1] = tested on: FAP^+ U-87 cells; assay: Cytotoxicity assay (resazurin) in U-87 cells; format: cell-based; conditions: single dose 1 µM, incubation time not stated
Method: In 96-well plates, U-87 cells (3 × 10^3) were seeded in each well and incubated at 37 °C and 5% CO2 for 24 h. The medium was removed and the wells were washed once with PBS. The cytotoxic drug (positive control) or the eFAP conjugate containing the drug were prepared at various concentrations (i.e., 1, 10, 100, 1000 nM) in DMEM culture medium, supplemented with 2 mM L-glutamine, 10% FBS, 50 units/mL penicillin, and 50 µg/mL streptomycin. Medium was used as a negative control. Cells were incubated with 100 µL of the tested compounds for 1, 24, 48, and 72 h. After incubation, medium was removed and each well was washed once with PBS. Next, 100 µL of 10% resazurin solution in culture medium was added to each well and incubated for 2.5 h. Fluorescence measurements were carried out using a microplate reader at 544 nm excitation and 590 nm emission.

[2] = biological target: T1, FAP (Homo sapiens, UniProt Q12884); assay: In vitro inhibition assay on human FAP (Z-GP-AMC substrate); format: biochemical; conditions: enzymatic assay; 20 µM Z-GP-AMC, 20 nM FAP; unit inferred
T1 sequence (Q12884 1-760): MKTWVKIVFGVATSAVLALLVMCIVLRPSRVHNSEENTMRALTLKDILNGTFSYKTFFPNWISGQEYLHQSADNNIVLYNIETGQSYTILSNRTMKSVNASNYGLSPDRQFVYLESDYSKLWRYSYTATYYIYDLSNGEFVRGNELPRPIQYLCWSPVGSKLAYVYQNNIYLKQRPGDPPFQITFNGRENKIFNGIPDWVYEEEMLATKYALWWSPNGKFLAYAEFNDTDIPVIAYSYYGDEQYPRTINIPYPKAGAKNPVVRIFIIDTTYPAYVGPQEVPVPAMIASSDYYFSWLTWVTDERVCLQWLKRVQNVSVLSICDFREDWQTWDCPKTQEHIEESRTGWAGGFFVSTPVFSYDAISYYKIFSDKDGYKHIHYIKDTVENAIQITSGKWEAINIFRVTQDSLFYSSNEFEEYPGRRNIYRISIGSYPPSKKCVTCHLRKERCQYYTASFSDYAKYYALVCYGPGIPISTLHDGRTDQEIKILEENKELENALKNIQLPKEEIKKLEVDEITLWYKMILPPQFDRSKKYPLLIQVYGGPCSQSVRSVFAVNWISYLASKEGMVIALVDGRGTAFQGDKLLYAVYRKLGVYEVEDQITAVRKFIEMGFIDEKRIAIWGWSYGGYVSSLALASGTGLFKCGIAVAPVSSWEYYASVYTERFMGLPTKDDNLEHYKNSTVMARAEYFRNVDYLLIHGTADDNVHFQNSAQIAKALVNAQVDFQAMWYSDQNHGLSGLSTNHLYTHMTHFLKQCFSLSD
Method: Enzymatic activity of human FAP (hFAP) and mouse FAP (mFAP) on the Z-GP-AMC substrate was measured at room temperature on a Hidex microplate reader by monitoring the fluorescence at an excitation wavelength of 360 nm and an emission wavelength of 465 nm. The reaction mixture contained 20 µM substrate, 20 nM FAP, assay buffer (50 mM Tris, 100 mM NaCl, 1 mM EDTA, pH 7.4) and tested compound (serial dilution from 10^-6 to 10^-12) in a total volume of 50 µL.

[3] = LogD7.4 shake-flask method (n-octanol/PBS); format: physicochemical; conditions: radiolabeled compound; n-octanol/PBS pH 7.4; triplicates
Method: Distribution coefficients (LogD7.4 values) were determined by a shake-flask method. Sample containing the ^203Pb-labeled compound was added to a vial containing 600 µL PBS (pH 7.4) and 600 µL n-octanol. The vial was vortexed vigorously and then centrifuged for 10 min for phase separation. Samples of the octanol (200 µL) and aqueous (200 µL) phases were taken and counted on a PerkinElmer WIZARD 2480 gamma counter. LogD7.4 value was calculated by using the equation: LogD7.4 = log [(counts in octanol phase)/(counts in aqueous phase)]. All the experiments were performed in triplicates.

[4] = tested on: U-87 tumor; assay: Near-infrared fluorescence imaging of U-87 tumor bearing mice; format: in vivo; conditions: 2 nmol intravenous
From the text: Six-week-old male Balb/c nu/nu-specific and opportunistic pathogen-tree (SOPF) mice were housed in individually ventilated cages, with 4 mice per cage. Upon arrival, mice were acclimated for 1 week, with access to food and water ad libitum. Mice were subcutaneously inoculated on the right shoulder with U-87 or HT-1080.hFAP cells (1 × 10^6 cells). Xenografts were allowed to grow until they reached an appropriate size at the start of the studies. All animal experiments were approved by the Animal Welfare Committee of the Erasmus MC and were conducted in agreement with institutional guidelines (license number: AVD101002017867).
Evaluation of targeting performance of eFAP-17 in near-infrared fluorescence imaging of U-87 tumor bearing mice after intravenous injection of 2 nmol of the probe are given in Figure 9 showing A) NIRF imaging of U-87 tumor bearing mice at 1 h after intravenous injection of 2 nmol of CW800 (left, negative control) or eFAP-17 (right) and B) image of excised tumors 2.5 h post administration of CW800 (left) or eFAP-17 (right).

Compound | IC50 [2] | LogD7.4 [3] | further results
COc1cc2cc(c1Cl)N(C)C(=O)C[C@H](OC(=O)[C@H](C)N(C)C(=O)CCS)[C@]1(C)O[C@H]1[C@H](C)[C@@H]1C[C@@](O)(NC(=O)O1)[C@H](OC)/C=C/C=C(\C)C2 [DM1, Mertansine] | – | – | cell viability [1]: 40%
N#C[C@@H]1CC(F)(F)CN1C(=O)CNC(=O)c1ccnc2c(OCCCNC(=O)C3CCC(CNC(=O)CN4CCN(CC(=O)O)CCN(CC(=O)O)CCN(CC(=O)O)CC4)CC3)cccc12 (stereo partly drawn) [eFAP-9, 2,2',2"-(10-(2-(((4-((3-((4-((2-((S)-2-Cyano-4,4-difluoropyrrolidin-1-yl)-2-oxoethyl)carbamoyl)quinolin-8-yl)oxy)propyl)carbamoyl)cyclohexyl)methyl)amino)-2-oxoethyl)-1,4,7,10-tetraazacyclododecane-1,4,7-triyl)triacetic acid] | 3.6 ± 2.3 nM | -3.47 ± 0.07 | –
CC1(C)C(/C=C/C2=C(Oc3ccc(S(=O)(=O)O)cc3)C(=C/C=C3/N(CCCCCC(=O)NCCCOc4cccc5c(C(=O)NCC(=O)N6CC(F)(F)C[C@H]6C#N)ccnc45)c4ccc(S(=O)(=O)O)cc4C3(C)C)/CCC2)=[N+](CCCCS(=O)(=O)[O-])c2ccc(S(=O)(=O)O)cc21 [eFAP-17, 4-(2-((E)-2-((E)-3-(2-((E)-1-(6-((3-((4-((2-((S)-2-Cyano-4,4-difluoropyrrolidin-1-yl)-2-oxoethyl)carbamoyl)quinolin-8-yl)oxy)propyl)amino)-6-oxohexyl)-3,3-dimethyl-5-sulfoindolin-2-ylidene)ethylidene)-2-(4-sulfophenoxy)cyclohex-1-en-1-yl)vinyl)-3,3-dimethyl-5-sulfo-3H-indol-1-ium-1-yl)butane-1-sulfonate] | 5.6 ± 1.6 nM | – | accumulation in healthy tissues ([4]; NIRF imaging): low accumulation in healthy tissues; uptake in the FAP overexpressing tumor ([4]; NIRF imaging at 1 h, excised tumors 2.5 h): high uptake in the FAP overexpressing tumor
N#C[C@@H]1CC(F)(F)CN1C(=O)CNC(=O)c1ccnc2c(OCCCNC(=O)COCC(=O)Nc3ccc(CNC(=O)CN4CCN(CC(=O)O)CCN(CC(=O)O)CCN(CC(=O)O)CC4)cc3)cccc12 [eFAP-11, (S)-2,2',2"-(10-(2-((4-(2-(2-((3-((4-((2-(2-Cyano-4,4-difluoropyrrolidin-1-yl)-2-oxoethyl)carbamoyl)quinolin-8-yl)oxy)propyl)amino)-2-oxoethoxy)acetamido)benzyl)amino)-2-oxoethyl)-1,4,7,10-tetraazacyclododecane-1,4,7-triyl)triacetic acid] | 1.8 ± 0.8 nM | -3.34 ± 0.07 | –
N#C[C@@H]1CC(F)(F)CN1C(=O)CNC(=O)c1ccnc2c(OCCCNC(=O)CCC(C(=O)O)N3CCN(CC(=O)O)CCN(CC(=O)O)CCN(CC(=O)O)CC3)cccc12 (stereo partly drawn) [eFAP-8, 2,2',2"-(10-(1-Carboxy-4-((3-((4-((2-((S)-2-cyano-4,4-difluoropyrrolidin-1-yl)-2-oxoethyl)carbamoyl)quinolin-8-yl)oxy)propyl)amino)-4-oxobutyl)-1,4,7,10-tetraazacyclododecane-1,4,7-triyl)triacetic acid] | 1.7 ± 0.5 nM | -3.58 ± 0.09 | –
N#C[C@@H]1CC(F)(F)CN1C(=O)CNC(=O)c1ccnc2c(OCCCNC(=O)CN3CCN(C(=O)CN4CCN(CC(=O)O)CCN(CC(=O)O)CCN(CC(=O)O)CC4)CC3)cccc12 [eFAP-12, (S)-2,2',2"-(10-(2-(4-(2-((3-((4-((2-(2-Cyano-4,4-difluoropyrrolidin-l-yl)-2-oxoethyl)carbamoyl)quinolin-8-yl)oxy)propyl)amino)-2-oxoethyl)piperazin-1-yl)-2-oxoethyl)-1,4,7,10-tetraazacyclododecane-1,4,7-triyl)triacetic acid] | – | -3.72 ± 0.08 | –
N#C[C@@H]1CC(F)(F)CN1C(=O)CNC(=O)c1ccnc2c(OCCCNC(=O)CN3CCC(NC(=O)CN4CCN(CC(=O)O)CCN(CC(=O)O)CCN(CC(=O)O)CC4)CC3)cccc12 [eFAP-10, (S)-2,2',2"-(10-(2-((1-(2-((3-((4-((2-(2-Cyano-4,4-difluoropyrrolidin-1-yl)-2-oxoethyl)carbamoyl)quinolin-8-yl)oxy)propyl)amino)-2-oxoethyl)piperidin-4-yl)amino)-2-oxoethyl)-1,4,7,10-tetraazacyclododecane-1,4,7-triyl)triacetic acid] | – | -3.64 ± 0.02 | –
(1^4S,1^6S,3^2S,3^3S,2R,4S,10E,12E,14R)-8^6-chloro-1^4-hydroxy-8^5,14-dimethoxy-3^3,2,7,10-tetramethyl-1^2,6-dioxo-7-aza-1(6,4)-oxazinana-3(2,3)-oxirana-8(1,3)-benzenacyclotetradecaphane-10,12-dien-4-yl N-(3-((3-((3-((4-((2-((S)-2-cyano-4,4-difluoropyrrolidin-1-yl)-2-oxoethyl)carbamoyl)quinolin-8-yl)oxy)propyl)amino)-3-oxopropyl)disulfaneyl)propanoyl)-N-methyl-L-alaninate [eFAP-18] | – | – | cell viability [1]: approximately 25%
N#C[C@@H]1CC(F)(F)CN1C(=O)CNC(=O)c1ccnc2c(OCCCNC(=O)CN3CCN(CCNC(=O)CN4CCN(CC(=O)O)CCN(CC(=O)O)CCN(CC(=O)O)CC4)CC3)cccc12 [eFAP-13, (S)-2,2',2"-(10-(2-((2-(4-(2-((3-((4-((2-(2-Cyano-4,4-difluoropyrrolidin-1-yl)-2-oxoethyl)carbamoyl)quinolin-8-yl)oxy)propyl)amino)-2-oxoethyl)piperazin-1-yl)ethyl)amino)-2-oxoethyl)-1,4,7,10-tetraazacyclododecane-1,4,7-triyl)triacetic acid] | 1.7 ± 0.5 nM | -3.28 ± 0.15 | –
